Experimental findings from ChEMBL document CHEMBL4334490, “Natural products as important tyrosine kinase inhibitors” (Eur J Med Chem, 2019) are described below.

Molecules are shown by their SMILES.

Chain of Epidermal growth factor receptor (P00533 whole entry): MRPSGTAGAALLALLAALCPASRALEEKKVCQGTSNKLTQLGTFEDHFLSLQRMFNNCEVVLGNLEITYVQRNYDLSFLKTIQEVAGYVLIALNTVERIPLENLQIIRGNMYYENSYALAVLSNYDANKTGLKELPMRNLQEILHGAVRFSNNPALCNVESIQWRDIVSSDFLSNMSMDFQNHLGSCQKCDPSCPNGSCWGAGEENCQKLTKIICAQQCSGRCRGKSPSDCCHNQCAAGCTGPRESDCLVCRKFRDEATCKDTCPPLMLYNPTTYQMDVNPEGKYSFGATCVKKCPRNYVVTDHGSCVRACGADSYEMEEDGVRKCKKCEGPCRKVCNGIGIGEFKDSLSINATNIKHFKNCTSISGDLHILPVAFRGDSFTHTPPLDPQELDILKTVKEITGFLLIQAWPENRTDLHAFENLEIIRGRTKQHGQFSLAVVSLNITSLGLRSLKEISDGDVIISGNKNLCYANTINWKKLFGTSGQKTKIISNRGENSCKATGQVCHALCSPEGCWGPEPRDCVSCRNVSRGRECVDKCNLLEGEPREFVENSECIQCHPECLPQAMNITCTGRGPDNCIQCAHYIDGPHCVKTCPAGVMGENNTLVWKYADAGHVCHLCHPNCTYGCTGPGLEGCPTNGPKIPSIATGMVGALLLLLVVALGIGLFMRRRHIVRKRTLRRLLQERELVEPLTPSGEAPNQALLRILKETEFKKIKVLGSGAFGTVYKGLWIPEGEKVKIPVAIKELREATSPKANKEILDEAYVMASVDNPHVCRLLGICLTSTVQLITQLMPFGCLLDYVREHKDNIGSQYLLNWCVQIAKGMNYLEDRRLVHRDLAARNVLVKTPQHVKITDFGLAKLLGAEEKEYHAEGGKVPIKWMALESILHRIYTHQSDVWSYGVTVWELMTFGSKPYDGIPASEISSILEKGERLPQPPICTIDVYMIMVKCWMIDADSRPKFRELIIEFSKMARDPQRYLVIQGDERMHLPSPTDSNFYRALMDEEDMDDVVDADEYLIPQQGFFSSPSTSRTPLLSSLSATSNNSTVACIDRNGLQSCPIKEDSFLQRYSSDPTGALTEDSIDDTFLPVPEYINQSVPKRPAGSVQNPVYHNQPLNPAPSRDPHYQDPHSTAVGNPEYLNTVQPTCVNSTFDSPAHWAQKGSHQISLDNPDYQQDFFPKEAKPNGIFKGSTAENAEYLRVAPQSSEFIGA

This assay concerns the target Epidermal growth factor receptor (Homo sapiens, UniProt P00533). As to the kind of experiment: Inhibition of EGFR (unknown origin).
In turn, `N=C1NC(=O)/C(=C2/CCNC(=O)c3[nH]c(Br)c(Br)c32)N1` had an IC50 of 21.1 µM. As to `N=C1NC(=O)/C(=C2/CCNC(=O)c3[nH]cc(Br)c32)N1`, the IC50 is 18.5 µM. The compound `COc1ccc(Cc2nc(-c3cc(Br)c(OCCCN(C)C)c(Br)c3)c[nH]c2=O)cc1Br` [Ma'edamine A] showed an IC50 of 10.6 µM.

For the compound `N=C1N=C(NCCS(=O)(=O)O)/C(=C/C(O)CNC(=O)c2cc(Br)c(Br)[nH]2)N1` (centres undefined) [TAUROACIDIN A], the concentration for half-maximal inhibition (IC50) was 37.9 µM.
